In patent publication US10752588B2 (The Broad Institute, Inc., priority 2014, dated 2020):
Converted amounts (≈) assume the structure as drawn.

Tests used:
[1] = Microsomal stability, human; format: in vitro ADME
[2] = Microsomal stability, rat; format: in vitro ADME
human D2R/β-arrestin [3] = target: T1, human D2R/β-arrestin (Homo sapiens (Human), UniProt P14416); assay: cell-based; settings: cAMP Antagonist, CHO-K1 cell line expressing human D2R/β-arrestin; quinpirole used as agonist
Method: The detection reagents are then added, and the read-out is detected.
Cells were prepared for assays by growing cultures for up to 2 weeks (from about 6-20 passages). A vial of frozen cells was thawed in a water bath held at 37° C. The cells were then transferred into a 50 ml tube with 10 ml growth media. The vial was rinsed with growth media and the contents transferred to the 50 ml tube. The 50 ml tube was centrifuged at 1200 rpm for 5 minutes at room temperature. […] When the cells reached about 90% confluence (approximately 3 days between passages), the cells were passaged and used for either the agonist or antagonist assays as described below.
The cells were prepared for Gi/cAMP assays as described above. The assays were performed using a PE Lance Ultra cAMP kit (TRF0263). The cells were grown on 225 mm dishes, then washed once with 1×PBS (Cellgro) before digestion with 2.5 ml 1× Detachment reagent (DRX 92-0009) for about 2 minutes. PBS (20 ml) was then added to the plate, and the cells were transferred to a 50 ml centrifuge tube, and centrifuged at room temperature using BD Dynac III, at 1200 rpm for 5 minutes. […] The plates were then incubated at room temperature for about 30 minutes before addition of Eu-cAMP tracer solution (100, PerkinElmer) and then ULight-anti-cAMP solution (100) to each well.

[4] = Microsomal stability, mouse
Plasma stability, rat = format: in vitro ADME
Plasma stability, human = format: in vitro ADME
[5] = Plasma protein binding, rat; format: in vitro ADME; settings: plasma, read-out: Plasma Protein Binding % bound
[6] = Plasma protein binding, human; format: in vitro ADME; settings: plasma, read-out: Plasma Protein Binding % bound
Solubility in PBS = format: physicochemical; settings: aqueous buffer
human D2R/β-arrestin [7] = target: T1, human D2R/β-arrestin; assay: β-Arrestin agonist assay (PathHunter); format: cell-based; settings: CHO-K1 cell line expressing human D2R/β-arrestin
In short: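 After compound incubation, detection reagent (Buffer:Emerald II:Galactor-Star, 19:5:1) added and luminescence or fluorescence read.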

human D2R/β-arrestin [8] = target: T1, human D2R/β-arrestin; assay: cell-based; settings: β-arrestin Antagonist, CHO-K1 cell line expressing human D2R/β-arrestin; quinpirole used as agonist
[9] = Plasma protein binding, mouse; format: in vitro ADME; settings: plasma, read-out: Plasma Protein Binding % bound
human D2R/β-arrestin [10] = target: T1, human D2R/β-arrestin; assay: Gi/cAMP agonist assay (Lance Ultra cAMP, Forskolin); format: cell-based; settings: CHO-K1 cell line expressing human D2R/β-arrestin
In short: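 Cells were plated and incubated before compounds were pin-transferred and incubated for 10 min at 37 °C. Forskolin was then added to stimulate cAMP. cAMP was detected by Lance Ultra TR-FRET using Eu-cAMP tracer and ULight-anti-cAMP antibody.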

Caco2 = Caco2 permeability; format: in vitro ADME; parameters: unit not given beside the values; settings: for Caco2 A-B: A-B direction; for Caco2 B-A: B-A direction
D2 = D2 (Homo sapiens (Human), UniProt P14416); assay: D2 radioligand binding assay
Sequence of D2 (P14416 whole entry): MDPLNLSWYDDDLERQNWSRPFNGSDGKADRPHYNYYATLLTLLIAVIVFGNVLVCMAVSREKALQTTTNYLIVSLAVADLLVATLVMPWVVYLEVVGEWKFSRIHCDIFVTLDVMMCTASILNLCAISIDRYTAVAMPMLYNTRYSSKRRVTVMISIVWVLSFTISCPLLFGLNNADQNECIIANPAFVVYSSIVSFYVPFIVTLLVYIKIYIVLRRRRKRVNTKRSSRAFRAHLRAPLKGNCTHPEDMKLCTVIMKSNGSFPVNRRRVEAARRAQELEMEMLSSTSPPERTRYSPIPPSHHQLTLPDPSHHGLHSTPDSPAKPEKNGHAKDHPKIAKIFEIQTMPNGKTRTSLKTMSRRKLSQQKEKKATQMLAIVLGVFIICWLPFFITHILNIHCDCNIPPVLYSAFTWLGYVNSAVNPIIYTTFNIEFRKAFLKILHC

plasma protein [11] = assay: Plasma protein binding, rat; format: in vitro ADME; settings: plasma, read-out: Plasma Protein Binding % bound
plasma protein [12] = assay: Plasma protein binding, human; format: in vitro ADME; settings: plasma, read-out: Plasma Protein Binding % bound
plasma protein [13] = assay: Plasma protein binding, mouse; format: in vitro ADME; settings: plasma, read-out: Plasma Protein Binding % bound
human D2R/β-arrestin [14] = target: T1, human D2R/β-arrestin; settings: CHO-K1 cell line expressing human D2R/β-arrestin, β-arrestin and Gi/cAMP pathways, FIG. 1

T1 sequence (P14416 whole entry): as above

Row | Microsomal Stability: % remaining after 60 minutes [1] | Microsomal Stability: % remaining after 60 minutes [2] | IC50 (human D2R/β-arrestin [3]) | Microsomal Stability: % remaining after 60 minutes [4] | Plasma Stability: % remaining after 5 hours (Plasma stability, human) | Plasma Stability: % remaining after 5 hours (Plasma stability, mouse) | fraction unbound [5] | fraction unbound [6] | EC50 (human D2R/β-arrestin [7]) | IC50 (human D2R/β-arrestin [8]) | fraction unbound [9] | EC50 (human D2R/β-arrestin [10]) | Structure (SMILES) | Plasma Stability: % remaining after 5 hours (Plasma stability, rat) | solubility (Solubility in PBS) | Caco2 A-B (Caco2) | Caco2 B-A (Caco2) | Ki (D2) | fraction unbound (plasma protein [11]) | fraction unbound (plasma protein [12]) | fraction unbound (plasma protein [13]) | also measured
1 | 71% | 28% | 1 to 10 µM | 31% | 100% | 98% | 0.024 | 0.047 | > 30 µM | 0.1 to 1 µM | 0.051 | > 30 µM | O=C(NC(c1ccccn1)C1CCCCC1)C1CCN(CCOc2ccccc2)CC1 (stereo not drawn) [Compound 37, N-(cyclohexyl(pyridin-2-yl)methyl)-1-(2-phenoxyethyl)piperidine-4-carboxamide] | 100% | 197 µM (≈ 83.1 µg/mL) | – | – | – | – | – | – | –
2 | 58% | 55% | > 30 µM | 37% | 94.5% | 93.4% | – | 0.037 | > 30 µM | 0.1 to 1 µM | 0.026 | 0.1 to 1 µM | O=C(NC(c1ccc(Cl)cc1)c1ccccn1)C1CCN(CCOc2ccccc2)CC1 (stereo not drawn) [Compound 63, N-((4-chlorophenyl)(pyridin-2-yl)methyl)-1-(2-phenoxyethyl)piperidine-4-carboxamide] | – | 476 µM (≈ 214 µg/mL) | 25.1 | 19.9 | 0.1 to 1 µM | – | – | – | functional profile at D2R (antagonist mode) (human D2R/β-arrestin [14]): representative β-arrestin biased D2R antagonists
3 | 60% | 51% | > 30 µM | 39% | 100% | 100% | 0.022 | 0.053 | > 30 µM | 0.1 to 1 µM | 0.027 | 0.1 to 1 µM | O=C(NC(c1ccc(Cl)cc1)c1cccnc1)C1CCN(CCOc2ccccc2)CC1 (stereo not drawn) [Compound 111, N-((4-chlorophenyl)(pyridin-3-yl)methyl)-1-(2-phenoxyethyl)piperidine-4-carboxamide] | 98% | – | – | – | – | – | – | – | –
4 | 56% | 27% | 1 to 10 µM | 36% | 98% | 96% | 0.021 | 0.022 | > 30 µM | 1 to 10 µM | 0.04 | > 30 µM | COc1cccc(C(NC(=O)C2CCN(CCOc3ccccc3)CC2)c2ccccc2)c1 (stereo not drawn) [Compound 146, N-((3-methoxyphenyl)(phenyl)methyl)-1-(2-phenoxyethyl)piperidine-4-carboxamide] | 88% | – | – | – | – | – | – | – | –

Continued, compound first:

Row | Structure (SMILES) | Microsomal Stability: % remaining after 60 minutes [1] | Microsomal Stability: % remaining after 60 minutes [2] | IC50 (human D2R/β-arrestin [3]) | Microsomal Stability: % remaining after 60 minutes [4] | Plasma Stability: % remaining after 5 hours (Plasma stability, human) | Plasma Stability: % remaining after 5 hours (Plasma stability, mouse) | fraction unbound [5] | fraction unbound [6] | EC50 (human D2R/β-arrestin [7]) | IC50 (human D2R/β-arrestin [8]) | fraction unbound [9] | EC50 (human D2R/β-arrestin [10]) | Plasma Stability: % remaining after 5 hours (Plasma stability, rat) | solubility (Solubility in PBS) | Caco2 A-B (Caco2) | Caco2 B-A (Caco2) | Ki (D2) | fraction unbound (plasma protein [11]) | fraction unbound (plasma protein [12]) | fraction unbound (plasma protein [13]) | also measured
5 | O=C(NC(c1ccc(Cl)cc1)c1ccccn1)C1CCN(CCCc2ccccc2)CC1 (stereo not drawn) [Compound 18, N-((4-chlorophenyl)(pyridin-2-yl)methyl)-1-(3-phenylpropyl)piperidine-4-carboxamide] | 78% | 55% | > 30 µM | 43% | 94.9% | 90.5% | 0.027 | 0.046 | > 30 µM | 1 to 10 µM | 0.056 | 0.1 to 1 µM | 93.2% | 352 µM (≈ 158 µg/mL) | – | – | – | – | – | – | –
6 | O=C(NC(c1ccc(F)cc1)c1ccccn1)C1CCN(CCOc2ccccc2)CC1 (stereo not drawn) [Compound 25] | 93% | 100% | 10 to 30 µM | 76% | 100% | 97% | – | – | > 30 µM | 1 to 10 µM | – | 10 to 30 µM | 94.5% | 452 µM (≈ 196 µg/mL) | 33.7 | 50.5 | 1 to 10 µM | 0.03 | 0.08 | 0.047 | –
7 | O=C(NC(c1ccc(Cl)cc1)c1ccccc1F)C1CCN(CCOc2ccccc2)CC1 (stereo not drawn) [Compound 40, N((4-chlorophenyl)(2-fluorophenyl)methyl)-1-(2-phenoxyethyl) piperidine-4-carboxamide] | 45% | 57% | 0.1 to 1 µM | 50% | 100% | 100% | – | – | > 30 µM | 0.1 to 1 µM | – | > 30 µM | 90% | 0.4 µM (≈ 0.187 µg/mL) | 4.4 | 1.9 | 1 to 10 µM | 0.023 | 0.011 | 0.01 | –
8 | O=C(NC(c1ccc(F)cc1)c1ccc(Cl)cc1)C1CCN(CCOc2ccccc2)CC1 (stereo not drawn) [Compound 42] | 40% | 70% | 0.1 to 1 µM | 59% | 98% | 100% | – | – | > 30 µM | 0.1 to 1 µM | – | 0.1 to 1 µM | 93% | < 0.1 µM | – | – | 0.1 to 1 µM | 0.014 | 0.007 | 0.007 | –
9 | O=C(NC(c1ccc(F)cc1)c1ccccn1)C1CCN(CCOc2ccccc2C(F)(F)F)CC1 (stereo not drawn) [Compound 52] | 46% | 7% | < 0.1 µM | 7% | 84% | 89% | – | – | > 30 µM | < 0.1 µM | – | > 30 µM | 55% | 27 µM (≈ 13.5 µg/mL) | 12.5 | 9.0 | – | 0.021 | 0.009 | 0.009 | –
10 | O=C(NC(c1ccc(F)cc1)c1ccccn1)C1CCN(CCOc2ccccc2Cl)CC1 (stereo not drawn) [Compound 53, 1-(2-(2-chlorophenoxy)ethyl)-N-((4-fluorophenyl)(pyridin-2-yl)methyl) piperidine-4-carboxamide] | 42% | 16% | < 0.1 µM | 3% | 100% | 96% | – | – | > 30 µM | < 0.1 µM | – | > 30 µM | 78% | 149 µM (≈ 69.7 µg/mL) | 27.4 | 23.9 | 0.1 to 1 µM | 0.086 | 0.21 | 0.021 | –
11 | O=C(NC(c1ccc(F)cc1)c1ccccn1)C1CCN(CCOc2ccccc2F)CC1 (stereo not drawn) [Compound 54, 1-(2-(2-fluorophenoxy)ethyl)-N-((4-fluorophenyl)(pyridin-2-yl)methyl) piperidine-4-carboxamide] | 70% | 66% | 0.1 to 1 µM | 29% | 96% | 100% | – | – | > 30 µM | 0.1 to 1 µM | – | > 30 µM | 78% | > 500 µM | 28.4 | 39.3 | – | 0.027 | 0.042 | 0.039 | –
